Converted amounts (≈) assume the structure as drawn. The source made the active and inactive calls. The calls are words filed in the database; no cut-off is given here. *1 amine or outer side, *2 acyl side, *3 side chain or, on linkers, in order; H or OH if unused. Where a SMILES comes first, the peptide text is derived from it. [ ]: non-standard residue; d: D form. X1 = O=C(/C(=C/c1cccnc1)N[*:1])[*:2]; X2 = O=C(/C(=C/c1ccccc1)N[*:1])[*:2]; d3Pal = N[C@H](Cc1cccnc1)C(=O)O; Orn = NCCC[C@H](N)C(=O)O
Columns and labels:
Escherichia coli [1] = test: Antimicrobial activity against Escherichia coli K-12 W3110 assessed as decrease in cell survival after 30 mins by colony counting method; format: functional; details: K-12 W3110, 0.5 h
[2] = Hemolytic activity against human erythrocytes; format: ADME, cell-based, Erythrocyte; details: read-out: ED50 (the source's name)
Escherichia coli [3] = test: Antimicrobial activity against Escherichia coli K-12 W3110 after 20 hrs by liquid microdilution method; format: functional; details: K-12 W3110, 20 h
Staphylococcus aureus [4] = test: Antimicrobial activity against Staphylococcus aureus FDA 209P after 20 hrs by liquid microdilution method; format: functional
Staphylococcus aureus [5] = test: Antimicrobial activity against Staphylococcus aureus FDA 209P assessed as decrease in cell survival after 30 mins by colony counting method; format: functional; details: 0.5 h
Staphylococcus aureus [6] = test: Induction of cytoplasmic membrane disruption in Staphylococcus aureus FDA 209P assessed as change in potassium permeability after 30 mins; format: functional; details: for EC50: 0.5 h, read-out: ED50 (the source's name)
Escherichia coli [7] = test: Induction of cytoplasmic membrane disruption in Escherichia coli K-12 W3110 assessed as change in potassium permeability after 30 mins; format: functional; details: K-12 W3110, 0.5 h, read-out: ED50 (the source's name)
Escherichia coli [8] = test: Antimicrobial activity against Escherichia coli K-12 W3110 after 20 hrs by liquid microdilution method in presence of PMBN; format: functional

Structure (SMILES) | LC50 (Escherichia coli [1]) [µM] | HC50 [2] [µM] | MIC (Escherichia coli [3]) [µM] | MIC (Staphylococcus aureus [4]) [µM] | LC50 (Staphylococcus aureus [5]) [µM] | EC50 (Staphylococcus aureus [6]) [µM] | EC50 (Escherichia coli [7]) [µM] | Activity (Escherichia coli [8]) | Activity (Staphylococcus aureus [6]) | MIC (Escherichia coli [8]; K-12 W3110, 20 h) [µg/mL]
CC(C)C[C@@H]1NC(=O)[C@H](C)NC(=O)[C@H](C(C)C)NC(=O)[C@@H]2CCCN2C(=O)/C(=C/c2cccnc2)NC(=O)[C@H](CC(C)C)NC(=O)[C@H](CCCN)NC(=O)[C@H](C(C)C)NC(=O)[C@@H]2CCCN2C(=O)/C(=C/c2cccnc2)NC1=O (cyclo(AL[X1]PV[Orn]L[X1]PV)) | > 100 | 50 | 106 (≈ 116 µg/mL) | 13 (≈ 14.3 µg/mL) | 10 | 10 | > 100 |  |  | 
CC(C)C[C@@H]1NC(=O)[C@H](CCCN)NC(=O)[C@H](C(C)C)NC(=O)[C@@H]2CCCN2C(=O)/C(=C/c2ccccc2)NC(=O)[C@H](CC(C)C)NC(=O)[C@H](CCCN)NC(=O)[C@H](C(C)C)NC(=O)[C@@H]2CCCN2C(=O)/C(=C/c2ccccc2)NC1=O (cyclo(L[X2]PV[Orn]L[X2]PV[Orn])) | 20 | 5 | 26 (≈ 29.6 µg/mL) | 3 (≈ 3.41 µg/mL) | 5 | 5 | 20 |  |  | 
CC(C)C[C@@H]1NC(=O)[C@H](CCCN)NC(=O)[C@H](C(C)C)NC(=O)[C@@H]2CCCN2C(=O)/C(=C/c2cccnc2)NC(=O)[C@H](CC(C)C)NC(=O)[C@H](CCCN)NC(=O)[C@H](C(C)C)NC(=O)[C@@H]2CCCN2C(=O)/C(=C/c2cccnc2)NC1=O (cyclo(L[X1]PV[Orn]L[X1]PV[Orn])) | 50 | > 100 | 26 (≈ 29.6 µg/mL) | 6 (≈ 6.84 µg/mL) | 10 | 5 | 50 | inactive | Dose-dependent effect | 
CC(C)C[C@@H]1NC(=O)[C@H](CCCN)NC(=O)[C@H](C(C)C)NC(=O)[C@@H]2CCCN2C(=O)[C@@H](Cc2ccc(O)cc2)NC(=O)[C@H](CC(C)C)NC(=O)[C@H](CCCN)NC(=O)[C@H](C(C)C)NC(=O)[C@@H]2CCCN2C(=O)[C@@H](Cc2ccc(O)cc2)NC1=O (cyclo(L[dY]PV[Orn]L[dY]PV[Orn])) |  | 10 | 26 (≈ 30.5 µg/mL) | 3 (≈ 3.52 µg/mL) |  |  |  |  |  | 
CO[C@@H]1[C@@H](OC(N)=O)[C@@H](O)[C@H](Oc2ccc3c(O)c(NC(=O)c4ccc(O)c(CC=C(C)C)c4)c(=O)oc3c2C)OC1(C)C |  |  |  |  |  |  |  | Active |  | 
CC(C)C[C@@H]1NC(=O)[C@H](C)NC(=O)[C@H](C(C)C)NC(=O)[C@@H]2CCCN2C(=O)/C(=C/c2cccnc2)NC(=O)[C@H](CC(C)C)NC(=O)[C@H](C)NC(=O)[C@H](C(C)C)NC(=O)[C@@H]2CCCN2C(=O)/C(=C/c2cccnc2)NC1=O (cyclo(AL[X1]PVAL[X1]PV)) | > 100 | 50 | > 114 | 114 (≈ 120 µg/mL) | 50 | 50 | > 100 |  |  | 
CC(C)C[C@@H]1NC(=O)[C@H](CCCN)NC(=O)[C@H](C(C)C)NC(=O)[C@@H]2CCCN2C(=O)[C@@H](Cc2ccccc2)NC(=O)[C@H](CC(C)C)NC(=O)[C@H](CCCN)NC(=O)[C@H](C(C)C)NC(=O)[C@@H]2CCCN2C(=O)[C@@H](Cc2ccccc2)NC1=O [GRAMICIDIN S] (cyclo(L[dF]PV[Orn]L[dF]PV[Orn])) | 20 | 5 | 13 (≈ 14.8 µg/mL) | 3 (≈ 3.42 µg/mL) | 5 | 2 | 20 |  | Dose-dependent effect | 4
CC(C)C[C@@H]1NC(=O)[C@H](CCCN)NC(=O)[C@H](C(C)C)NC(=O)[C@@H]2CCCN2C(=O)/C(=C/c2ccccc2)NC(=O)[C@H](CC(C)C)NC(=O)[C@H](CCCN)NC(=O)[C@H](C(C)C)NC(=O)[C@@H]2CCCN2C(=O)/C(=C/c2cccnc2)NC1=O (cyclo(L[X2]PV[Orn]L[X1]PV[Orn])) | 50 | 20 | 26 (≈ 29.6 µg/mL) | 3 (≈ 3.42 µg/mL) | 10 | 5 | 50 |  |  | 
CC(C)C[C@@H]1NC(=O)[C@H](CCCN)NC(=O)[C@H](C(C)C)NC(=O)[C@@H]2CCCN2C(=O)[C@@H](Cc2cccnc2)NC(=O)[C@H](CC(C)C)NC(=O)[C@H](CCCN)NC(=O)[C@H](C(C)C)NC(=O)[C@@H]2CCCN2C(=O)[C@@H](Cc2cccnc2)NC1=O (cyclo(L[d3Pal]PV[Orn]L[d3Pal]PV[Orn])) | 100 | > 100 | 50 (≈ 57.2 µg/mL) | 50 (≈ 57.2 µg/mL) | 20 | 20 | 50 |  |  | 

— ChEMBL document CHEMBL3217536, “Structureactivity relationships of gramicidin S analogs containing (-3-pyridyl)-,-dehydroalanine residues on membrane permeability” (Medchemcomm, 2011)
